Source: ChEMBL document CHEMBL3244053, “Structural modification study of bis(substituted aminoalkylamino)anthraquinones. An evaluation of the relationship of the [2-[(2-hydroxyethyl)amino]ethyl]amino side chain with antineoplastic activity” (1979)
The source made the active and inactive calls. The calls are words filed in the database; no cut-off is given here.

Legend:
[1] = test system: P388; assay: Antineoplastic activity against mouse P388 cells allografted in CDF1 mouse assessed as survival at 50 mg/kg qd for 9 days; assay type: functional, organism-based; design: dose 50 mg/kg
[2] = test system: B16; assay: Antineoplastic activity against mouse B16 cells allografted in BDF1 mouse assessed as survival at 100 mg/kg qd for 9 days; assay type: functional, organism-based; design: dose 100 mg/kg
[3] = test system: P388; assay: Antineoplastic activity against mouse P388 cells allografted in CDF1 mouse at 100 mg/kg qd for 9 days relative to control; assay type: functional
[4] = test system: B16; assay: Antineoplastic activity against mouse B16 cells allografted in BDF1 mouse at 50 mg/kg qd for 9 days relative to control; assay type: functional
[5] = test system: B16; assay: Antineoplastic activity against mouse B16 cells allografted in BDF1 mouse at 25 mg/kg qd for 9 days relative to control; assay type: functional
[6] = test system: B16; assay: Antineoplastic activity against mouse B16 cells allografted in BDF1 mouse at 100 mg/kg qd for 9 days relative to control; assay type: functional
[7] = test system: P388; assay: Antineoplastic activity against mouse P388 cells allografted in CDF1 mouse assessed as survival at 100 mg/kg qd for 9 days; assay type: functional, organism-based; design: dose 100 mg/kg
[8] = test system: B16; assay: Antineoplastic activity against mouse B16 cells allografted in BDF1 mouse assessed as survival at 25 mg/kg qd for 9 days; assay type: functional, organism-based; design: dose 25 mg/kg
[9] = test system: P388; assay: Antineoplastic activity against mouse P388 cells allografted in CDF1 mouse at 50 mg/kg qd for 9 days relative to control; assay type: functional
[10] = test system: L1210; assay: Antineoplastic activity against mouse L1210 cells allografted in CDF1 mouse assessed as survival at 160 mg/kg qd for 9 days; assay type: functional, organism-based; design: dose 160 mg/kg
[11] = test system: Colon 26; assay: Antineoplastic activity against mouse Colon 26 cells allografted in CDF1 mouse assessed as survival at 40 mg/kg qd for 9 days; assay type: functional, organism-based; design: dose 40 mg/kg
[12] = test system: Colon 26; assay: Antineoplastic activity against mouse Colon 26 cells allografted in CDF1 mouse at 40 mg/kg qd for 9 days relative to control; assay type: functional
[13] = test system: Colon 26; assay: Antineoplastic activity against mouse Colon 26 cells allografted in CDF1 mouse at 20 mg/kg qd for 9 days relative to control; assay type: functional
[14] = test system: B16; assay: Antineoplastic activity against mouse B16 cells allografted in BDF1 mouse assessed as survival at 200 mg/kg qd for 9 days; assay type: functional, organism-based; design: dose 200 mg/kg
[15] = test system: P388; assay: Antineoplastic activity against mouse P388 cells allografted in CDF1 mouse assessed as survival at 30 mg/kg qd for 9 days; assay type: functional, organism-based; design: dose 30 mg/kg
[16] = test system: P388; assay: Antineoplastic activity against mouse P388 cells allografted in CDF1 mouse at 30 mg/kg qd for 9 days relative to control; assay type: functional
[17] = test system: P388; assay: Antineoplastic activity against mouse P388 cells allografted in CDF1 mouse assessed as survival at 40 mg/kg qd for 9 days; assay type: functional, organism-based; design: dose 40 mg/kg
[18] = test system: P388; assay: Antineoplastic activity against mouse P388 cells allografted in CDF1 mouse assessed as survival at 80 mg/kg qd for 9 days; assay type: functional, organism-based; design: dose 80 mg/kg
[19] = test system: L1210; assay: Antineoplastic activity against mouse L1210 cells allografted in CDF1 mouse at 40 mg/kg qd for 9 days relative to control; assay type: functional
[20] = test system: P388; assay: Antineoplastic activity against mouse P388 cells allografted in CDF1 mouse at 40 mg/kg qd for 9 days relative to control; assay type: functional
[21] = test system: B16; assay: Antineoplastic activity against mouse B16 cells allografted in BDF1 mouse at 200 mg/kg qd for 9 days relative to control; assay type: functional
[22] = test system: L1210; assay: Antineoplastic activity against mouse L1210 cells allografted in CDF1 mouse at 160 mg/kg qd for 9 days relative to control; assay type: functional
[23] = test system: L1210; assay: Antineoplastic activity against mouse L1210 cells allografted in CDF1 mouse assessed as survival at 80 mg/kg qd for 9 days; assay type: functional, organism-based; design: dose 80 mg/kg
[24] = test system: P388; assay: Antineoplastic activity against mouse P388 cells allografted in CDF1 mouse at 80 mg/kg qd for 9 days relative to control; assay type: functional
[25] = test system: L1210; assay: Antineoplastic activity against mouse L1210 cells allografted in CDF1 mouse at 80 mg/kg qd for 9 days relative to control; assay type: functional
[26] = test system: Colon 26; assay: Antineoplastic activity against mouse Colon 26 cells allografted in CDF1 mouse assessed as survival at 20 mg/kg qd for 9 days; assay type: functional, organism-based; design: dose 20 mg/kg
[27] = test system: Colon 26; assay: Antineoplastic activity against mouse Colon 26 cells allografted in CDF1 mouse at 80 mg/kg qd for 9 days relative to control; assay type: functional
[28] = test system: L1210; assay: Antineoplastic activity against mouse L1210 cells allografted in CDF1 mouse assessed as survival at 40 mg/kg qd for 9 days; assay type: functional, organism-based; design: dose 40 mg/kg
[29] = test system: B16; assay: Antineoplastic activity against mouse B16 cells allografted in BDF1 mouse assessed as survival at 50 mg/kg qd for 9 days; assay type: functional, organism-based; design: dose 50 mg/kg
[30] = test system: Colon 26; assay: Antineoplastic activity against mouse Colon 26 cells allografted in CDF1 mouse assessed as survival at 80 mg/kg qd for 9 days; assay type: functional, organism-based; design: dose 80 mg/kg
[31] = test system: P388; assay: Antineoplastic activity against mouse P388 cells allografted in CDF1 mouse assessed as survival at 12.5 mg/kg qd for 9 days; assay type: functional, organism-based; design: dose 12.5 mg/kg
[32] = test system: P388; assay: Antineoplastic activity against mouse P388 cells allografted in CDF1 mouse assessed as survival at 25 mg/kg qd for 9 days; assay type: functional, organism-based; design: dose 25 mg/kg
[33] = test system: P388; assay: Antineoplastic activity against mouse P388 cells allografted in CDF1 mouse at 15 mg/kg qd for 9 days relative to control; assay type: functional
[34] = test system: P388; assay: Antineoplastic activity against mouse P388 cells allografted in CDF1 mouse at 25 mg/kg qd for 9 days relative to control; assay type: functional
[35] = test system: P388; assay: Antineoplastic activity against mouse P388 cells allografted in CDF1 mouse assessed as survival at 15 mg/kg qd for 9 days; assay type: functional, organism-based; design: dose 15 mg/kg
[36] = test system: P388; assay: Antineoplastic activity against mouse P388 cells allografted in CDF1 mouse at 12.5 mg/kg qd for 9 days relative to control; assay type: functional

For `CN(C)CCOc1cccc2c1C(=O)c1ccccc1C2=O`, the Activity [1] was “Active”, the Activity [2] was “Active” and the T/C [3] was 109%. The T/C [4] was 97%, the T/C [5] was 93% and the T/C [6] was 104%. For the same compound, the Activity [7] was “Active”, the Activity [8] was “Active” and the T/C [9] was 107%.
With `O=C1C=C(NCCNCCO)C(=O)c2ccccc21` the T/C [3] was 93% and the T/C [9] was 103%.
With `CN(C)CCC1=CC(=O)c2ccccc2C1=O` the Activity [1] was “Active”, the T/C [3] was 97% and the T/C [9] was 100%.
For `CN(C)CCNc1ccc(O)c2c1C(=O)c1ccccc1C2=O`, the Activity [10] was “Active”, the Activity [2] was “Active” and the Activity [11] was “Active”. For the same compound, the T/C [12] was 135%, the T/C [13] was 104% and the Activity [14] was “Active”. The T/C [4] was 110%, the Activity [15] was “Active” and the T/C [16] was 100%. For the same compound, the Activity [17] was “Active”, the Activity [18] was “Active” and the T/C [19] was 107%. The T/C [20] was 124%, the T/C [21] was 156% and the T/C [6] was 145%. For the same compound, the T/C [22] was 139%, the Activity [23] was “Active” and the T/C [24] was 153%. For the same compound, the T/C [25] was 122%, the Activity [26] was “Active” and the T/C [27] was 115%. For the same compound, the Activity [28] was “Active”, the Activity [29] was “Active” and the Activity [30] was “Active”.
`Cc1ccc(NCCNCCO)c2c(=O)c3ccccc3sc12` was tested, and the Activity [31] was “Active”, the Activity [15] was “Active” and the Activity [32] was “Active”. The T/C [16] was 136%, the T/C [33] was 123% and the T/C [34] was 120%. The Activity [35] was “Active” and the T/C [36] was 113%.
